Test results: patent US20150045387A1, “Bi-Aromatic And Tri-Aromatic Compounds As NADPH Oxidase 2 (Nox2) Inhibitors” (The University of Surrey, priority 2011, published 2015)

Experiments:
[1] = tested on: mouse microvascular endothelial cells (SVEC4-10); assay: cell viability by trypan blue exclusion and viable cell number counting, SVEC4-10; type: cell-based; settings: SVEC4-10, LMH001 5 and 10 μM, 24 h, trypan blue exclusion
Description: (§1) FIG. 7 is a graph showing no cytotoxicity of LMH001 on living mouse microvascular endothelial cells (SVEC4-10) and human liver hepatocyte cells (HepG2), assessed by trypan blue exclusion and viable cell number counting. Cells were cultured with LMH001 (5 and 10 μM) for 24 h. Cell viabilities of SVEC4-10 cells and HepG2 cells in the presence of LMH001 (5 and 10 μM) were expressed as % of alive cells compared to cells in the absence of LMH001 (control, 100%). Results are presented as mean±SD (n=3).
(§2) The mouse lymph node microvascular endothelial cell line (SVEC4-10) was from the American Type Culture Collection (CRL-2167) and grown in DMEM, containing 10% (v/v) heat inactivated foetal calf serum, 100 U/mL penicillin and […] streptomycin, in a humidified atmosphere at 37° C. with 5% CO2.
Cell viability and membrane integrity in the presence and absence of LMH001 were assessed using the trypan blue exclusion assay as described previously (15). Briefly, cells (1×10^6) were seeded onto 10 cm^2 culture dishes and allowed to adhere for 4 hours in 10% (v/v) FCS medium. […] At the time of experiment, cells were harvested by 0.25% Trypsin/EDTA, pelleted, resuspended in serum free medium and counted using a haemocytometer in the presence of trypan blue (0.4%) solution. The number of viable cells was calculated as a percentage of total cells.

[2] = tested on: human liver hepatocyte cells (HepG2); assay: cell viability by trypan blue exclusion and viable cell number counting, HepG2; type: cell-based; settings: HepG2, LMH001 5 and 10 μM, 24 h, trypan blue exclusion
Description: as §1
HepG2 is a human hepatocytic cell line (ATCC No. HB-8065) that was originally derived from liver tissue with a well differentiated hepatocellular carcinoma. HepG2 cells have been proven to be a suitable in vitro model system for the study of human hepatocytes, and the study of liver metabolism and toxicity. […]
Cell viability and membrane integrity in the presence and absence of LMH001 were assessed using the trypan blue exclusion assay as described previously (15). […] At the time of experiment, cells were harvested by 0.25% Trypsin/EDTA, pelleted, resuspended in serum free medium and counted using a haemocytometer in the presence of trypan blue (0.4%) solution. The number of viable cells was calculated as a percentage of total cells.

[3] = tested on: mouse microvascular endothelial cells (SVEC4-10 cells); assay: MTT assay for cytotoxicity, SVEC4-10; type: cell-based; settings: SVEC4-10, LMH001 5 and 10 μM, 24 h
Description: (§3) FIG. 8 is a graph showing no cytotoxicity of LMH001 on living mouse microvascular endothelial cells (SVEC4-10 cells) and human liver hepatocyte cells (HepG2 cells), assessed by means of an MTT assay. Cells were cultured with LMH001 (5 and 10 μM) for 24 h. MTT is a yellow tetrazolium reagent which can be converted by living cells to insoluble blue formazan crystal in the medium. The insoluble blue formazan crystals were then dissolved in DMSO and measured for absorbance at 570 nm by a plate reader. Higher absorbance corresponds to more living cells. Results are presented as mean±SD (n=3).
as §2
(§4) The potential cytotoxicity of LMH001 on cultured endothelial cells (SVEC4-10) and liver cells (HepG2) was assessed using the MIT assay as described previously (16). […] Absorbance was measured at 570 nm in an ELISA plate reader and the mean of 3 blank readings was subtracted from each corrected value.

[4] = tested on: human liver hepatocyte cells (HepG2 cells); assay: MTT assay for cytotoxicity, HepG2; type: cell-based; settings: HepG2, LMH001 5 and 10 μM, 24 h
Description: as §3
(§5) HepG2 is a human hepatocytic cell line (ATCC No. HB-8065) that was originally derived from liver tissue with a well differentiated hepatocellular carcinoma. HepG2 cells have been proven to be a suitable in vitro model system for the study of human hepatocytes, and the study of liver metabolism and toxicity. HepG2 cells were grown in DMEM, containing 10% (v/v) heat inactivated foetal calf serum, 100 U/mL penicillin and […] streptomycin, in a humidified atmosphere at 37° C. with 5% CO2.
as §4

[5] = tested on: human lung alveolar epithelial cancer cells (A549 cells); assay: EGF-induced cell proliferation of A549 cells (cell counting); type: cell-based; settings: LMH001 5 μM, 24 h
Description: A549 cells were seeded at equal number the day before experiments and then stimulated with or without […] (EGF, 10 ng/ml) for 24 h in the presence or absence of LMH001 (5 μM). Cells were then trypsinized and counted. Cell homogenates were used for measuring O2.^− production by lucigenin-chemiluminescence in the presence of NADPH (100 μM).
A549 is a human lung adenocarcinoma epithelial cell line. A549 cells were grown in DMEM, containing 10% (v/v) heat inactivated foetal calf serum, 100 U/mL penicillin and […] streptomycin, in a humidified atmosphere at 37° C. with 5% CO2.

SVEC4-10 cells = assay: normal cell proliferation, MTS assay, SVEC4-10; type: cell-based, mouse; settings: SVEC4-10, LMH001 up to 10 μM, 24 h
Description: (§6) A) SVEC4-10 cells and HepG2 cells were cultured in the presence or absence of LHM001 (0-10 μM) for 24 h and tested for cell proliferation using a MTS assay kit. B) HL-60 cells were cultured in the presence or absence of LMH001 (0-10 μM), and cell proliferation was examined at 6, 12 and 24 h of culture.
as §2
The ex vivo proliferative capabilities of isolated BMSC or cultured cells were analyzed using the MTS proliferation assay. BMSC were suspended in Dulbecco's modified Eagle's medium supplemented with 5% fetal bovine serum (Sigma), 100 U/mL penicillin and 100 μg/mL streptomycin, and plated in 1% gelatin coated 96-well plates at a density of 1×10^5 cells/well in triplicate. After 24 hours in culture medium containing LMH001 (0-10 μM), proliferation was assessed using the MTS (CellTiter 96 AQ; Promega, Madison, USA) assay according to the manufacturer's protocol. The absorbance at 490 nm was read using an ELISA plate reader (Perkin elmer), and the proliferation index calculated relative to the controls. The mean of 3 blank readings was subtracted from each corrected value.

HepG2 cells = assay: normal cell proliferation, MTS assay, HepG2; type: cell-based, human; settings: HepG2, LMH001 up to 10 μM, 24 h
Description: as §6, §5
(§7) The ex vivo proliferative capabilities of isolated BMSC or cultured cells were analyzed using the MTS proliferation assay. […] After 24 hours in culture medium containing LMH001 (0-10 μM), proliferation was assessed using the MTS (CellTiter 96 AQ; Promega, Madison, USA) assay according to the manufacturer's protocol. The absorbance at 490 nm was read using an ELISA plate reader (Perkin elmer), and the proliferation index calculated relative to the controls. The mean of 3 blank readings was subtracted from each corrected value.

HL-60 cells = assay: normal cell proliferation, MTS assay, HL-60; type: cell-based, human; settings: HL-60, LMH001 up to 10 μM, 6, 12 and 24 h of culture
Description: as §6
HL-60 is a human promyelocytic leukaemia cell line. The HL60 cells were grown in RPMI 1640 medium; containing 10% (v/v) heat inactivated foetal calf serum, 100 U/mL penicillin and […] streptomycin, in a humidified atmosphere at 37° C. with 5% CO2. HL60 cells were differentiated to the human neutrophils by culturing the cells in the culture medium in the presence of 1.25% v/v DMSO for 6 days before being used for the experiments.
as §7

Compound: O=C(OCc1cccc(O)c1O)c1ccc(O)c(CO)c1 [LMH001, (2,3,-dihydroxyphenyl)methyl 4-hydroxy-3-(hydroxymethyl)benzoate]
- cell viability (% of alive cells vs control) [1]: no significant difference
- cell viability (% of alive cells vs control) [2]: no significant difference
- cytotoxicity, MTT absorbance at 570 nm [3]: no significant difference
- cytotoxicity, MTT absorbance at 570 nm [4]: no significant difference
- EGF-induced A549 cell proliferation ([5]; EGF 10 ng/ml, cells counted): inhibited completely
- A549 cell proliferation, LMH001 alone ([5]; no EGF, compared to medium only): no significant effect
- normal cell proliferation under physiological condition (SVEC4-10 cells): no significant effect
- normal cell proliferation under physiological condition (HepG2 cells): no significant effect
- normal cell proliferation under physiological condition (HL-60 cells): no significant effect
